Test [1] deals with Proto-oncogene tyrosine-protein kinase Src (Homo sapiens, UniProt P12931). Nature of the test: Binding affinity to human recombinant Src.
The target of test [2] is Tyrosine-protein kinase ABL1 (Homo sapiens) (UniProt P00519).
Description: Binding affinity to human recombinant Abl

The structures appear in SMILES notation.

Tyrosine-protein kinase ABL1 (Homo sapiens), sequence (P00519 whole entry): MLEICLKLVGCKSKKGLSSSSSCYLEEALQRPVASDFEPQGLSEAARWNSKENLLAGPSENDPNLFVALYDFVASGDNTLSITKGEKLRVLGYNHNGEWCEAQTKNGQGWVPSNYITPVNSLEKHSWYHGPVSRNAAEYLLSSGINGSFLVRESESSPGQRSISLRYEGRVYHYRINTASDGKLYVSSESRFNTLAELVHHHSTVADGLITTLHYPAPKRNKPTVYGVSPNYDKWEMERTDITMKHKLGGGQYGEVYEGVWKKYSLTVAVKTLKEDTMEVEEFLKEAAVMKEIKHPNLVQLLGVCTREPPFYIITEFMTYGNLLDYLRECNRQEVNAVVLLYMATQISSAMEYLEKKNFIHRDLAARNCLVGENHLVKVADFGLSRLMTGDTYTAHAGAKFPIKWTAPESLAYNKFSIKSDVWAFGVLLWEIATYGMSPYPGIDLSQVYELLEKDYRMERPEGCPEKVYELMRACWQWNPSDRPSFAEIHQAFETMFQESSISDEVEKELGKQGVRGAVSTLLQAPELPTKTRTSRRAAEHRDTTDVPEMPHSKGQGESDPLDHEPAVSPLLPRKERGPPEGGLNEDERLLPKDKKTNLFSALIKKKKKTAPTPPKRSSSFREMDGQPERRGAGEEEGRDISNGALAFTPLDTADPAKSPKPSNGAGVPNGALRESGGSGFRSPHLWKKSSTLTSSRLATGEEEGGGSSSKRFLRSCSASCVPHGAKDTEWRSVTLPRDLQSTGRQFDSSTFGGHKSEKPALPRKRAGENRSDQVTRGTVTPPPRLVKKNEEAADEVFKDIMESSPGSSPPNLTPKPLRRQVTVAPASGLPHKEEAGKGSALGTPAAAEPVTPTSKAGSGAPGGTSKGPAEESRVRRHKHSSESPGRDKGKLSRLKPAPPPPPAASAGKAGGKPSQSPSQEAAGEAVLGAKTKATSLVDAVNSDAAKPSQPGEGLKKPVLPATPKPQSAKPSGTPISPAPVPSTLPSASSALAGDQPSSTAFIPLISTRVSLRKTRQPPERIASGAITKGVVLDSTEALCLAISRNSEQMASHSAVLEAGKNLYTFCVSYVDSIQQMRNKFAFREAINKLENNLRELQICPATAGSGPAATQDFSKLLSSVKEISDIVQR
Proto-oncogene tyrosine-protein kinase Src, sequence (P12931 2-536 limits assumed): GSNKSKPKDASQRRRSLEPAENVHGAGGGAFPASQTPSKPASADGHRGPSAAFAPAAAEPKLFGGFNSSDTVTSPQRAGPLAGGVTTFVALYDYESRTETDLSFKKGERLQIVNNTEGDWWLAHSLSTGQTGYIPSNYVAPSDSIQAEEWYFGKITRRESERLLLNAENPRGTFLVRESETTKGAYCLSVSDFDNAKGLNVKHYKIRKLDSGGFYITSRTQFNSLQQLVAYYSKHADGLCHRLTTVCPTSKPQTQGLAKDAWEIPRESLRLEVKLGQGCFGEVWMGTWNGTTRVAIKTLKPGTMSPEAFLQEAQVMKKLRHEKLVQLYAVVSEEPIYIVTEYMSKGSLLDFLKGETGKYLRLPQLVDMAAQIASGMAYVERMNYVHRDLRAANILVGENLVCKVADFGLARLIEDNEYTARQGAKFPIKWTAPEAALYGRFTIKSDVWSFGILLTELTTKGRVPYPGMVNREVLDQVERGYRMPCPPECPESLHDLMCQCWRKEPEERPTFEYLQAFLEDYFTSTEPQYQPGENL

Consider `Cc1ccc(-c2cnc(NC(=O)c3ccc(Br)cc3)s2)cc1`, for which the ID50 in test [1] and in test [2] was greater than 2000 µM each time.

For the compound `O=C(Nc1nnc(CCc2ccccc2)s1)c1ccc(Cl)cc1Cl`, the ID50 in test [2] is greater than 2000 µM.

In test [2], `O=C1NN(c2ccccc2)C(=O)/C1=C\c1ccccc1OCc1ccccc1` came in with an ID50 greater than 2000 µM.

Regarding `COc1ccc(C(=O)Nc2nnc(Cc3c[nH]c4ccccc34)s2)cc1`, in test [2], the ID50 is greater than 2000 µM.

The Ki is a dissociation constant, usually derived from enzyme kinetics or from competition with a known ligand. In the case of `O=C(Nc1nnc(CCc2ccccc2)s1)c1ccccc1`, the Ki in test [1] came to 2.9 µM. The ID50 in test [2] is greater than 2000 µM.

`O=C(Nc1ccccc1)Nc1nnc(Cc2ccccc2)s1`: the ID50 in test [1] was greater than 2000 µM.

In the case of `O=C1NN(c2ccc(I)cc2)C(=O)/C1=C\c1ccc(N2CCOCC2)cc1`, the ID50 in test [1] is greater than 2000 µM.

In test [2], `CCN(CC)c1ccc(/C=C2/C(=O)NN(c3ccc(I)cc3)C2=O)c(O)c1` displayed an ID50 greater than 2000 µM.

Source of the values: ChEMBL document CHEMBL1148493, “A combination of docking/dynamics simulations and pharmacophoric modeling to discover new dual c-Src/Abl kinase inhibitors” (J Med Chem, 2006).
